Measured values taken from patent US7772192B2, “Compositions and methods for treatment of disease with acetylated disaccharides” (The Regents of the University of California, priority 2003, dated 2010).

Tests used:
[1] = system: LS180 cells adhering to recombinant E-selectin; assay: Cell adhesion to immobilized E-selectin; assay type: cell-based, human; details: LS180 cells grown 5 days with disaccharide
Method: Cell adhesion to immobilized selectins. 96-well plates were coated overnight at 4° C. with recombinant E-selectin (4 μg/ml) or P-selectin (2 μg/ml) (R & D Systems) and blocked with 1% BSA/PBS. LS180 cells were grown for 5 days with various amounts of acetylated disaccharide, harvested, labeled with Calcein AM (5 μM, Molecular Probes) in DMEM/1% FBS, and allowed to settle at room temperature on selectin-coated wells (5×10^4 cells/well). Plates were then stirred at 75 rpm for 30 min (Orbit shaker, Lab-Line Instruments) followed by immersion upside-down in a vessel filled with Hank's buffered saline solution (HBSS, Sigma), which allowed non-adherent cells to fall under gravity. St John et al., J. Immunol Methods, 170: 159-166, 1994. The wells were then washed by aspiration using HBSS. LS180 cells were less adherent to P-selectin, so the immersion step was not necessary prior to washing. […] Fluorescence was measured using a 96-well fluorimeter (CytoFluor II), and the average of triplicate measurements was determined±standard error. Cell viability was judged to be >90% by Trypan blue exclusion at the end of each experiment.
Adhesion to selectins is altered in disaccharide-treated tumor cells. Treatment of LS180 cells with AcGnG-NM was not toxic to the cells up to 100 μM based on growth curves and exclusion of Trypan blue. […]

LS180 cells [2] = assay: Metastatic lung tumor formation in SCID mice (LS180); assay type: in vivo
Method: Tumor formation. LS180 cells were grown in the presence or absence of 50 μM AcGnG-NM for 6 days, harvested with EDTA, and resuspended in sterile PBS. Approximately 3×10^5 tumor cells in 150 μl PBS were injected into the lateral tail vein of anesthetized 7 week-old immunodeficient mice (Fox Chase SCID; Charles River). The mice were then maintained in microbe-free housing with free access to standard laboratory chow and water, and inspected regularly for any signs of distress. After 4 weeks, mice were euthanized by CO2 asphyxiation under anesthesia, and lungs, livers, brains, kidneys/adrenals, and spleens were fixed in Bouin's solution (Sigma) for 6 hr followed by transfer to 70% ethanol. Lungs for each animal were inspected under a dissecting microscope for the total number of surface tumors. Histologic sections (hematoxylin/eosin) were examined for tumor foci, and representative photomicrographs were taken. The other organs were also reviewed histologically for any tumor foci.
Impairment of metastatic tumor formation. Prior studies have shown that deletion of P-selectin in mice alters the tumorigenicity of hematogenously distributed LS180 cells. Kim et al., Proc. Natl. Acad. Sci. USA, 95: 9325-9330, 1998. […] After 4 weeks, the animals were sacrificed and formation of lung tumor foci was assessed at necropsy by counting nodules on the lung surface and in histologic sections.

[3] = system: HAL8 human metastatic lung adenocarcinoma cells; assay: Metastatic lung tumor formation in SCID mice (HAL8); assay type: in vivo
LS180 cells [4] = assay: Cytolytic assay (51Cr release) with platelets; assay type: cell-based, human
[5] = system: LLC cells adhering to recombinant P-selectin; assay: Adhesion of LLC cells to immobilized P-selectin; assay type: cell-based
Excerpt: LLC cells were “panned” onto wells precoated with recombinant P-selectin (R&D Systems, Minneapolis, M) as described (Brown et al., 2003; Fuster et al., Cancer Research 63: 2775-2781, 2003). The extent of adhesion was normalized to the value obtained for cells not treated with disaccharide. Controls included sialidase and anti-Ps monoclonal antibody treatment.

LLC cells = assay: Experimental metastasis of pretreated LLC cells; assay type: in vivo, mice; details: cells treated 4 days, Es1(e) mice, 3 weeks
Method: (A) LLC cells were treated in culture for 4 days with peracetylated GlcNAcβ3Gal-NM or vehicle (DMSO/propylene glycol, v/v 1:1). Single-cell suspensions (2×10^5) were injected in the tail-veins of Es1(e) mice. After 3 weeks, the mice were sacrificed and the number of tumors present on the surface of the lungs was determined by visual inspection.
LLC cells were treated in culture for 5 days with 4-deoxy AcGnG-NM, AcGnG-NM or vehicle (DMSO:propylene glycol) and then a single-cell suspension (2×10^5 cells) was injected in the tail vein of mice. After 3 weeks, the number of tumors present on the surface of the lungs was determined.

Question: Which results are given for “GlcNAcβ1,3Galβ-O-naphthalenemethanol [AcGnG-NM]”?
Answer: adhesion to recombinant E-selectin [1]: reduced the ability of LS180 cells to adhere; lung tumor foci (LS180 cells [2]; cells pretreated with 50 μM for 6 days, 4 weeks, n=8, p<0.0002): less numerous; tumor size (LS180 cells [2]; treated versus untreated cells): approximately the same; lung tumor foci [3]: behaved similarly; platelet protection from cytolysis (LS180 cells [4]; cells pretreated with 50 μM for 6 days, mouse leukocytes and platelets): markedly reduced; cytolysis in whole human blood (LS180 cells [4]; whole human blood, 3 hr): comparable results; cell adhesion to immobilized P-selectin [5]: moderate reduction; tumors on the surface of the lungs (LLC cells): significantly fewer tumor foci
